Source: the supplement of paper PMC10307832

What was measured:
Experiment in all cases: relative viability (nuclei count vs DMSO), 5 days (fraction); higher = more cells survive
[1] = compound: C[C@@H](N)c1ccc(C(=O)Nc2ccnc3[nH]ccc23)cc1 + COc1cc2c(Oc3ccc(NC(=O)C4(C(=O)Nc5ccc(F)cc5)CC4)cc3F)ccnc2cc1OCCCN1CCOCC1 [Foretinib] (partner 0.25 µM)
Summary of the method: (§1)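 Relative viability divides the nuclei count in treated wells by that in vehicle wells. Lung cancer cell lines were seeded in 1536-well plates, dosed by pin tool the next day, and fixed and stained after 5 days in one step with final 0.05% Triton X-100, 1% formaldehyde and 1 ug/ml Hoechst. Dosing was a single drug or a fixed anchor-drug dose plus five library-drug doses (not always all listed) in √10 steps, and values are medians of duplicate plates imaged at 4×.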

[2] = compound: C[C@@H](N)c1ccc(C(=O)Nc2ccnc3[nH]ccc23)cc1 + Nc1nc2[nH]cc(CCc3ccc(C(=O)N[C@@H](CCC(=O)O)C(=O)O)cc3)c2c(=O)[nH]1 [Pemetrexed] (partner 0.2 µM)
Summary of the method: as §1

Tanzisertib + Dasatinib = compound: O[C@H]1CC[C@H](Nc2ncc3nc(Nc4c(F)cc(F)cc4F)n([C@H]4CCOC4)c3n2)CC1 [Tanzisertib] + Cc1nc(Nc2ncc(C(=O)Nc3c(C)cccc3Cl)s2)cc(N2CCN(CCO)CC2)n1 [Dasatinib] (partner 0.075 µM)
Summary of the method: as §1

Tanzisertib + Pemetrexed = compound: O[C@H]1CC[C@H](Nc2ncc3nc(Nc4c(F)cc(F)cc4F)n([C@H]4CCOC4)c3n2)CC1 [Tanzisertib] + Nc1nc2[nH]cc(CCc3ccc(C(=O)N[C@@H](CCC(=O)O)C(=O)O)cc3)c2c(=O)[nH]1 [Pemetrexed] (partner 0.2 µM)
Summary of the method: as §1

Cell Line | relative viability ([1]; first compound 0.04 µM) | relative viability ([1]; first compound 0.1265 µM) | relative viability ([1]; first compound 0.4 µM) | relative viability ([1]; first compound 1.265 µM) | relative viability ([1]; first compound 4 µM) | relative viability ([2]; first compound 0.04 µM) | relative viability ([2]; first compound 0.1265 µM) | relative viability ([2]; first compound 0.4 µM) | relative viability ([2]; first compound 1.265 µM) | relative viability ([2]; first compound 4 µM) | relative viability (Tanzisertib + Dasatinib; first compound 0.08 µM) | relative viability (Tanzisertib + Dasatinib; first compound 0.253 µM) | relative viability (Tanzisertib + Dasatinib; first compound 0.8 µM) | relative viability (Tanzisertib + Dasatinib; first compound 2.53 µM) | relative viability (Tanzisertib + Dasatinib; first compound 8 µM) | relative viability (Tanzisertib + Pemetrexed; first compound 0.08 µM) | relative viability (Tanzisertib + Pemetrexed; first compound 0.253 µM) | relative viability (Tanzisertib + Pemetrexed; first compound 0.8 µM) | relative viability (Tanzisertib + Pemetrexed; first compound 2.53 µM) | relative viability (Tanzisertib + Pemetrexed; first compound 8 µM)
NCI-H1755 | 0.95 | 0.96 | 0.901 | 0.903 | 0.664 | 0.433 | 0.527 | 0.448 | 0.425 | 0.471 | 0.408 | 0.46 | 0.488 | 0.464 | 0.333 | 0.368 | 0.451 | 0.565 | 0.408 | 0.404
NCI-H1793 | 0.692 | 0.829 | 0.946 | – | 0.83 | 1.02 | 0.978 | 0.94 | – | 1 | 0.417 | 0.367 | 0.405 | 0.388 | 0.423 | 1.07 | 0.914 | 0.976 | 0.766 | 0.828
NCI-H1915 | 1.17 | 1.11 | 1.12 | – | 0.984 | – | 0.501 | 0.541 | – | 0.449 | 0.319 | 0.316 | 0.321 | 0.301 | 0.283 | 0.565 | 0.451 | 0.486 | 0.501 | 0.49
NCI-H1944 | 0.98 | 0.975 | 0.985 | 0.822 | 0.557 | 0.594 | 0.605 | 0.73 | 0.596 | 0.611 | 0.254 | 0.23 | 0.234 | 0.196 | 0.22 | 0.733 | 0.589 | 0.686 | 0.678 | 0.554
NCI-H1975 | 1.06 | 0.854 | 0.847 | 0.681 | 0.653 | 0.313 | 0.31 | 0.265 | 0.228 | 0.211 | 0.421 | 0.446 | 0.365 | 0.356 | 0.329 | 0.304 | 0.294 | 0.267 | 0.317 | 0.254
NCI-H1993 | 0.785 | 0.732 | 0.781 | 0.924 | 0.714 | 0.652 | 0.653 | – | 0.632 | 0.642 | 0.631 | 0.656 | 0.709 | 0.526 | 0.479 | 0.621 | 0.585 | 0.605 | 0.561 | 0.54
NCI-H2009 | 1.2 | 1.14 | 1.11 | 1.02 | 0.868 | 0.984 | 0.975 | 0.943 | 0.866 | 0.765 | 0.324 | 0.318 | 0.296 | 0.308 | 0.24 | 1.01 | 1.03 | 0.957 | 1.04 | 1.1
NCI-H2023 | 0.965 | 1.14 | 1.4 | 0.988 | 0.766 | 0.226 | 0.262 | 0.211 | – | 0.245 | 0.677 | 0.616 | 0.536 | 0.606 | 0.497 | 0.287 | 0.222 | 0.215 | 0.202 | 0.205
NCI-H2085 | 1.03 | 0.989 | 0.918 | 0.901 | 0.79 | 0.825 | 0.863 | 0.732 | 0.733 | 0.668 | 0.22 | 0.246 | 0.24 | 0.224 | 0.261 | – | 0.934 | 0.942 | 0.841 | 0.765
NCI-H2087 | 1.16 | 1.07 | 1.1 | – | 0.983 | 0.654 | 0.651 | 0.65 | 0.571 | 0.577 | 0.842 | 0.876 | 0.77 | 0.967 | 0.686 | 0.702 | 0.661 | 0.668 | 0.691 | 0.706
NCI-H2126 | 1.2 | 1.13 | 1.29 | – | 1.09 | 0.697 | 0.684 | 0.764 | 0.57 | 0.738 | 0.614 | 0.626 | 0.614 | 0.628 | 0.572 | 0.674 | 0.69 | 0.728 | 0.723 | 0.515
NCI-H2170 | 1.02 | 1 | 0.936 | 0.922 | 0.937 | 0.284 | 0.249 | 0.271 | 0.277 | 0.263 | 0.625 | 0.586 | 0.574 | 0.568 | 0.512 | 0.265 | 0.292 | 0.282 | 0.265 | 0.251
NCI-H2228 | 1.03 | 0.743 | 1.02 | 0.911 | 0.866 | 0.342 | 0.385 | 0.302 | 0.347 | 0.327 | 0.624 | 0.524 | 0.537 | 0.462 | 0.433 | 0.371 | 0.288 | 0.378 | 0.355 | 0.348
NCI-H2342 | 1.09 | 1.22 | 1.01 | 1.21 | 0.933 | 0.781 | 0.803 | 0.792 | 0.847 | 0.794 | 0.32 | 0.311 | 0.308 | 0.283 | 0.32 | 0.867 | 0.749 | 0.768 | 0.708 | 0.668
NCI-H2347 | 1.17 | 0.964 | 1.22 | – | 1.32 | 0.41 | 0.424 | 0.452 | 0.388 | 0.403 | 0.333 | – | 0.309 | 0.26 | 0.303 | 0.454 | 0.468 | 0.435 | 0.408 | 0.442
NCI-H2405 | 1.12 | 1.09 | 1.13 | 0.838 | 0.519 | – | 1.09 | 0.918 | 0.567 | 0.306 | 0.228 | 0.225 | 0.195 | 0.227 | 0.188 | 1.1 | 1.1 | 1 | 1.24 | 0.955
